Source: patent publication US20260285875A1, “INHIBITORS OF PARG” (858 Therapeutics, Inc., priority 2023, published 2026)

These compounds were tested against T1, cellular PARG (Homo sapiens, UniProt Q86W56) (assay: Nuclear PAR accumulation assay (immunofluorescence high-content imaging, MMS-treated HeLa cells)). Conditions: 1 hour compound then MMS 50 μg/mL for an additional hour.
T1 construct: endogenous in cells; host or cells: HeLa
Assay type: cell-based
Summary of the method: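 HeLa cells pretreated with compound for 1 h at 37° C, then given 50 μg/mL MMS for another hour. After methanol fixation, PAR was immunostained with DAPI nuclear counterstain; per-nucleus intensity and percent PAR-positive cells were imaged at 20× (≥1,000 cells/well). IC50 from four-parameter logistic fit.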

T1 sequence (Q86W56 whole entry): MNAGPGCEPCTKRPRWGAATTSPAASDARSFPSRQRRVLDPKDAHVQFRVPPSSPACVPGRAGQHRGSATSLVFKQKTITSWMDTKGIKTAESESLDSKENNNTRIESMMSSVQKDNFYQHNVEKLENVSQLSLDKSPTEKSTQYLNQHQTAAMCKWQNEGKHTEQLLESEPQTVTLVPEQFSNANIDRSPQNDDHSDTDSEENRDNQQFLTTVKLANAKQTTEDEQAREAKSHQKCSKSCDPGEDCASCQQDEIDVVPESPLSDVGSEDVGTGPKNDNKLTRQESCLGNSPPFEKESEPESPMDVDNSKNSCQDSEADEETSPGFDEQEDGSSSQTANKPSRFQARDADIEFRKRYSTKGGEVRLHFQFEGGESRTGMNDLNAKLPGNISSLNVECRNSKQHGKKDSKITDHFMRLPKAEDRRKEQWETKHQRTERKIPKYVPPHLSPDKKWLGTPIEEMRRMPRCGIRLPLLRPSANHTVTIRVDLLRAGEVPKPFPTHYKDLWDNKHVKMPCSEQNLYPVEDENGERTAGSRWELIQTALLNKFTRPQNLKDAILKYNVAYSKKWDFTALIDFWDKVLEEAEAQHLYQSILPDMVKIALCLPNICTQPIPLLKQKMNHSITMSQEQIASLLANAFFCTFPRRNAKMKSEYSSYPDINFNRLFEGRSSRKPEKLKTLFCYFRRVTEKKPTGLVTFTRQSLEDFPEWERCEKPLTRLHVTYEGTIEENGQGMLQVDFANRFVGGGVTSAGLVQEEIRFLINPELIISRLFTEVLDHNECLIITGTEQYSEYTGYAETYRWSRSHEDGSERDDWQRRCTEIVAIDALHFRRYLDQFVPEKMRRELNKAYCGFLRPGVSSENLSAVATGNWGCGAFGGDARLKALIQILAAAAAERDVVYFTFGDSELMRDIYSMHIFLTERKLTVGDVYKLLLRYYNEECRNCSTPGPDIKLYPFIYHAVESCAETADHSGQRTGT

**Q.** With `Cn1cc(CN2C(=O)c3cc(S(=O)(=O)NC4(C)CC4)cc(Cl)c3N3C2=NC[C@H]3C#CCN)cn1` [Example 103, (R)-1-(3-aminoprop-1-yn-1-yl)-9-chloro-4-((1-methyl-1H-pyrazol-4-yl)methyl)-N-(1-methylcyclopropyl)-5-oxo-1,2,4,5-tetrahydroimidazo[1,2-a]quinazoline-7-sulfonamide] as the compound, how does the IC50 read?
**A.** 100 to 1000 nM

**Q.** `[2H]C([2H])(c1cnn(C)c1)N1C(=O)c2cc(S(=O)(=O)NC3(C)CC3)ccc2N2C1=NC[C@H]2C#Cc1cccc(N)n1` [Example 104, (R)-1-((6-aminopyridin-2-yl)ethynyl)-4-((1-methyl-1H-pyrazol-4-yl)methyl-d2)-N-(1-methylcyclopropyl)-5-oxo-1,2,4,5-tetrahydroimidazo[1,2-a]quinazoline-7-sulfonamide] was tested. Which IC50 did it give?
**A.** < 100 nM

**Q.** For `[2H]C([2H])(c1cnn(C)c1)N1C(=O)c2cc(S(=O)(=O)NC3(C)CC3)ccc2N2C1=NC[C@H]2C#CC(C)(C)N` [Example 105, (R)-1-(3-amino-3-methylbut-1-yn-1-yl)-4-((1-methyl-1H-pyrazol-4-yl)methyl-d2)-N-(1-methylcyclopropyl)-5-oxo-1,2,4,5-tetrahydroimidazo[1,2-a]quinazoline-7-sulfonamide], which IC50 is on record?
**A.** 100 to 1000 nM

**Q.** For `[2H]C([2H])(c1cnn(C)c1)N1C(=O)c2cc(S(=O)(=O)NC3(C)CC3)ccc2N2C1=N[C@H]1CNC[C@H]12` [Example 106, (7aS,10aR)-6-((1-methyl-1H-pyrazol-4-yl)methyl-d2)-N-(1-methylcyclopropyl)-5-oxo-6,7a,8,9,10,10a-hexahydro-5H-pyrrolo[3′,4′:4,5]imidazo[1,2-a]quinazoline-3-sulfonamide], which IC50 is on record?
**A.** 100 to 1000 nM

**Q.** Which IC50 does the source give for `Cc1cc([C@@H]2CN=C3N(Cc4cnn(C)c4)C(=O)c4cc(S(=O)(=O)NC5(C)CC5)ccc4N32)on1` [Example 107, (S)-4-((1-methyl-1H-pyrazol-4-yl)methyl)-N-(1-methylcyclopropyl)-1-(3-methylisoxazol-5-yl)-5-oxo-1,2,4,5-tetrahydroimidazo[1,2-a]quinazoline-7-sulfonamide] here?
**A.** < 100 nM

**Q.** `[2H]C([2H])(c1cnn(C)c1)N1C(=O)c2cc(S(=O)(=O)NC3(C)CC3)ccc2N2C1=NC[C@H]2COc1cnn(C)c1` [Example 108, (S)-4-((1-methyl-1H-pyrazol-4-yl)methyl-d2)-1-(((1-methyl-1H-pyrazol-4-yl)oxy)methyl)-N-(1-methylcyclopropyl)-5-oxo-1,2,4,5-tetrahydroimidazo[1,2-a]quinazoline-7-sulfonamide] was tested. Which IC50 did it give?
**A.** < 100 nM

**Q.** With `[2H]C([2H])(c1cnn(C)c1)N1C(=O)c2cc(S(=O)(=O)NC3(C)CC3)ccc2N2C1=NCC21CC(CN(C)C)C1` (stereo not drawn) [Example 109, 3-((dimethylamino)methyl)-4′-((1-methyl-1H-pyrazol-4-yl)methyl-d2)-N-(1-methylcyclopropyl)-5′-oxo-4′,5′-dihydro-2′H-spiro[cyclobutane-1,1′-imidazo[1,2-a]quinazoline]-7′-sulfonamide] as the compound, how does the IC50 read?
**A.** 100 to 1000 nM

**Q.** With `[2H]C([2H])(c1cnn(C)c1)N1C(=O)c2cc(S(=O)(=O)NC3(C)CC3)ccc2N2C1=NC[C@H]2COc1ccccn1` [Example 110, (S)-4-((1-methyl-1H-pyrazol-4-yl)methyl-d2)-N-(1-methylcyclopropyl)-5-oxo-1-((pyridin-2-yloxy)methyl)-1,2,4,5-tetrahydroimidazo[1,2-a]quinazoline-7-sulfonamide] as the compound, how does the IC50 read?
**A.** < 100 nM

**Q.** With `[2H]C([2H])(c1cnn(C)c1)N1C(=O)c2cc(S(=O)(=O)NC3(C)CC3)cc(Cl)c2N2C1=NC[C@H]2C#C` [Example 111, (R)-9-chloro-1-ethynyl-4-((1-methyl-1H-pyrazol-4-yl)methyl-d2)-N-(1-methylcyclopropyl)-5-oxo-1,2,4,5-tetrahydroimidazo[1,2-a]quinazoline-7-sulfonamide] as the compound, how does the IC50 read?
**A.** < 100 nM

**Q.** For `[2H]C([2H])(c1cnn(C)c1)N1C(=O)c2cc(S(=O)(=O)NC3(C)CC3)ccc2N2C1=NC[C@H]2C#CC1(N(C)C)CC1` [Example 112, (R)-1-((1-(dimethylamino)cyclopropyl)ethynyl)-4-((1-methyl-1H-pyrazol-4-yl)methyl-d2)-N-(1-methylcyclopropyl)-5-oxo-1,2,4,5-tetrahydroimidazo[1,2-a]quinazoline-7-sulfonamide], which IC50 is on record?
**A.** < 100 nM

**Q.** With `[2H]C([2H])(c1cnn(C)c1)N1C(=O)c2cc(S(=O)(=O)NC3(C)CC3)ccc2N2C1=NC[C@H]2CSC` [Example 113, (S)-4-((1-methyl-1H-pyrazol-4-yl)methyl-d2)-N-(1-methylcyclopropyl)-1-((methylthio)methyl)-5-oxo-1,2,4,5-tetrahydroimidazo[1,2-a]quinazoline-7-sulfonamide] as the compound, how does the IC50 read?
**A.** < 100 nM

**Q.** `[2H]C([2H])(c1cnn(C)c1)N1C(=O)c2cc(S(=O)(=O)NC3(C)CC3)ccc2N2C1=NC[C@H]2COCCN(C)C` [Example 114, (S)-1-((2-(dimethylamino)ethoxy)methyl) -4-((1-methyl-1H-pyrazol-4-yl)methyl-d2)-N-(1-methylcyclopropyl)-5-oxo-1,2,4,5-tetrahydroimidazo[1,2-a]quinazoline-7-sulfonamide] was tested. Which IC50 did it give?
**A.** 100 to 1000 nM

**Q.** For `Cn1cc(CN2C(=O)c3cc(S(=O)(=O)NC4(C)CC4)ccc3N3C2=NC[C@H]3COC2CC2)cn1` [Example 115, (S)-1-(cyclopropoxymethyl)-4-((1-methyl-1H-pyrazol-4-yl)methyl)-N-(1-methylcyclopropyl)-5-oxo-1,2,4,5-tetrahydroimidazo[1,2-a]quinazoline-7-sulfonamide], which IC50 is on record?
**A.** < 100 nM

**Q.** Which IC50 does the source give for `Cn1cc(CN2C(=O)c3cc(S(=O)(=O)NC4(C)CC4)ccc3N3C2=NC[C@H]3C#Cc2ccncc2)cn1` [Example 116, (R)-4-((1-methyl-1H-pyrazol-4-yl)methyl)-N-(1-methylcyclopropyl)-5-oxo-1-(pyridin-4-ylethynyl)-1,2,4,5-tetrahydroimidazo[1,2-a]quinazoline-7-sulfonamide] here?
**A.** < 100 nM

**Q.** With `Cn1cc(CN2C(=O)c3cc(S(=O)(=O)NC4(C)CC4)ccc3N3C2=NC[C@H]3C#Cc2cccnc2)cn1` [Example 117, (R)-4-((1-methyl-1H-pyrazol-4-yl)methyl)-N-(1-methylcyclopropyl)-5-oxo-1-(pyridin-3-ylethynyl)-1,2,4,5-tetrahydroimidazo[1,2-a]quinazoline-7-sulfonamide] as the compound, how does the IC50 read?
**A.** < 100 nM

**Q.** With `Cn1cc(CN2C(=O)c3cc(S(=O)(=O)NC4(C)CC4)ccc3N3C2=NC[C@H]3C2CCC2)cn1` [Example 118, (R)-1-cyclobutyl-4-((1-methyl-1H-pyrazol-4-yl)methyl)-N-(1-methylcyclopropyl)-5-oxo-1,2,4,5-tetrahydroimidazo[1,2-a]quinazoline-7-sulfonamide] as the compound, how does the IC50 read?
**A.** < 100 nM

**Q.** How did the IC50 turn out when `Cc1nc([C@@H]2CN=C3N(Cc4cnn(C)c4)C(=O)c4cc(S(=O)(=O)NC5(C)CC5)ccc4N32)co1` [Example 119, (S)-4-((1-methyl-1H-pyrazol-4-yl)methyl)-N-(1-methylcyclopropyl)-1-(2-methyloxazol-4-yl)-5-oxo-1,2,4,5-tetrahydroimidazo[1,2-a]quinazoline-7-sulfonamide] was run?
**A.** 100 to 1000 nM

**Q.** Which IC50 does the source give for `CN1C(=O)c2cc(S(=O)(=O)NC3(C)CC3)ccc2N2C1=NC[C@H]2C#Cc1cn(C)nc1F` [Example 120, (R)-1-((3-fluoro-1-methyl-1H-pyrazol-4-yl)ethynyl)-4-methyl-N-(1-methylcyclopropyl)-5-oxo-1,2,4,5-tetrahydroimidazo[1,2-a]quinazoline-7-sulfonamide] here?
**A.** < 100 nM
